In ChEMBL document CHEMBL4665770, “Design and Discovery of Natural Cyclopeptide Skeleton Based Programmed Death Ligand 1 Inhibitor as Immune Modulator for Cancer Therapy” (J Med Chem, 2020) one finds inhibition and IC50 data, which are given here for 16 molecules.

The structures appear in SMILES notation. Square brackets hold non-standard residues; d marks the D form. Peptide text beside a SMILES is read from it. Orn = NCCC[C@H](N)C(=O)O

Assay [1] deals with Programmed cell death protein 1/Programmed cell death 1 ligand 1 (Homo sapiens) (UniProt Q15116+Q9NZQ7). As to the kind of experiment: Inhibition of PD1-Tag2/PD-L1-Tag1 (unknown origin) protein-protein interaction at 20 uM preincubated for 15 mins followed by addition of anti-Tag1-Eu3+ and anti-Tag2-XL665 measured after 3 hrs by HTRF assay relative to control. The format is protein-complex assay. Conditions: time 195.0 min.

Assay [2] deals with Programmed cell death protein 1/Programmed cell death 1 ligand 1 (Homo sapiens, UniProt Q9NZQ7). As to the kind of experiment: Inhibition of PD1-Tag2/PD-L1-Tag1 (unknown origin) protein-protein interaction preincubated for 15 mins followed by addition of anti-Tag1-Eu3+ and anti-Tag2-XL665 measured after 3 hrs by HTRF assay. The format is protein-complex assay.
Programmed cell death protein 1/Programmed cell death 1 ligand 1, sequence (Q15116 whole entry): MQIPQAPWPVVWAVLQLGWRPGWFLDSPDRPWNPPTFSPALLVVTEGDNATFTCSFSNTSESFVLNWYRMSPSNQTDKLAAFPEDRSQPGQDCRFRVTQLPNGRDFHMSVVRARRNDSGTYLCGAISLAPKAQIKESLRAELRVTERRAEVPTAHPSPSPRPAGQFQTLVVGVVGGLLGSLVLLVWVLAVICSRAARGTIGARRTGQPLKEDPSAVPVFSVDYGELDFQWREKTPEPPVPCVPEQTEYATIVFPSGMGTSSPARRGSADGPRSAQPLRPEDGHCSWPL
Programmed cell death protein 1/Programmed cell death 1 ligand 1, sequence (Q9NZQ7 whole entry): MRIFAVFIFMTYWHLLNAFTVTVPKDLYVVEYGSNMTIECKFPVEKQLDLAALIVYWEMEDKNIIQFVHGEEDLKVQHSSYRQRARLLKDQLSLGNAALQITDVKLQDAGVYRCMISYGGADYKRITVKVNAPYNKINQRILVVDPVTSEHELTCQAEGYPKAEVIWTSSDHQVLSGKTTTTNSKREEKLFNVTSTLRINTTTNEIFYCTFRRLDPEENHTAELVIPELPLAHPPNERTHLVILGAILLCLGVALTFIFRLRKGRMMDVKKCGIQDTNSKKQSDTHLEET

Turning to `CC(C)C[C@@H]1NC(=O)[C@H](CC(=O)O)NC(=O)[C@H](C(C)C)NC(=O)[C@@H]2CCCN2C(=O)[C@@H](Cc2ccccc2)NC(=O)[C@H](CC(C)C)NC(=O)[C@H](CCCNC(=N)N)NC(=O)[C@H](C(C)C)NC(=O)[C@@H]2CCCN2C(=O)[C@@H](Cc2ccccc2)NC1=O`, in assay [1], the inhibition (commonly the drop in the measured response relative to a control, in per cent) is 57.3%. In assay [2], the IC50 (as a rule, the midpoint of a concentration-inhibition curve) was 9.63 µM.
For `CC(C)C[C@@H]1NC(=O)[C@H](CC(=O)O)NC(=O)[C@H](C(C)C)NC(=O)[C@@H]2CCCN2C(=O)[C@@H](Cc2c[nH]c3ccccc23)NC(=O)[C@H](CC(C)C)NC(=O)[C@H](CCCNC(=N)N)NC(=O)[C@H](C(C)C)NC(=O)[C@@H]2CCCN2C(=O)[C@@H](Cc2ccccc2)NC1=O`, in that order: 66.8% and 7.42 µM.
Turning to `CC(C)C[C@@H]1NC(=O)[C@H](CC(=O)O)NC(=O)[C@H]([C@@H](C)O)NC(=O)[C@@H]2CCCN2C(=O)[C@@H](Cc2ccccc2)NC(=O)[C@H](CC(C)C)NC(=O)[C@H](CCCNC(=N)N)NC(=O)[C@H](C(C)C)NC(=O)[C@@H]2CCCN2C(=O)[C@@H](Cc2ccccc2)NC1=O`, the inhibition in assay [1] turned out to be 72.4%. Moreover, in assay [2], the IC50 was determined as 6.35 µM.
For `CC(C)C[C@@H]1NC(=O)[C@H](CCCNC(=N)N)NC(=O)[C@H](C(C)C)NC(=O)[C@@H]2CCCN2C(=O)[C@@H](Cc2ccccc2)NC(=O)[C@H](C)NC(=O)[C@H](CC(=O)O)NC(=O)[C@H](C)NC(=O)[C@@H]2CCCN2C(=O)[C@@H](Cc2ccccc2)NC1=O`, in that order: 51.9% and 27.5 µM.
The like results for `CCCC[C@@H]1NC(=O)[C@H](CC(=O)O)NC(=O)[C@H]([C@@H](C)O)NC(=O)[C@@H]2CCCN2C(=O)[C@@H](Cc2c[nH]c3ccccc23)NC(=O)[C@H](CC(C)C)NC(=O)[C@H](CCCNC(=N)N)NC(=O)[C@H](C(C)C)NC(=O)[C@@H]2CCCN2C(=O)[C@@H](Cc2ccccc2)NC1=O` were, in that order, 82.1% and 5.02 µM.
On to `CC(C)C[C@@H]1NC(=O)[C@H](CCCN)NC(=O)[C@H](C(C)C)NC(=O)[C@@H]2CCCN2C(=O)[C@@H](Cc2ccccc2)NC(=O)[C@H](CC(C)C)NC(=O)[C@H](CCCN)NC(=O)[C@H](C(C)C)NC(=O)[C@@H]2CCCN2C(=O)[C@@H](Cc2ccccc2)NC1=O` (cyclo(V[Orn]L[dF]PV[Orn]L[dF]P)), for which, in assay [1], the inhibition is 6.86%.
Take `CC(NCCCC[C@@H]1NC(=O)[C@@H](Cc2ccccc2)NC(=O)[C@H](CC(C)C)NC(=O)[C@H](CC(=O)O)NC(=O)[C@H]([C@@H](C)O)NC(=O)[C@@H]2CCCN2C(=O)[C@@H](Cc2c[nH]c3ccccc23)NC(=O)[C@H](CC(C)C)N(C)C(=O)[C@H](CCCNC(=N)N)NC(=O)[C@H](C(C)C)NC1=O)=C1C(=O)CC(C)(C)CC1=O`: the inhibition in assay [1] amounted to 16.1%.
Same read-out and setting: for `CC(C)C[C@@H]1NC(=O)[C@H](CCCNC(=N)N)NC(=O)[C@H](C(C)C)NC(=O)[C@@H]2CCCN2C(=O)[C@@H](Cc2ccccc2)NC(=O)[C@H](C)NC(=O)[C@H](CC(=O)O)NC(=O)[C@H](C(C)C)NC(=O)[C@@H]2CCCN2C(=O)[C@@H](Cc2ccccc2)NC1=O` (cyclo(A[dF]PVRL[dF]PVD)) the value was 21.7%.
In the case of `CC(C)C[C@@H]1NC(=O)[C@H](CCCNC(=N)N)NC(=O)[C@H](C(C)C)NC(=O)[C@@H]2CCCN2C(=O)[C@@H](Cc2ccccc2)NC(=O)[C@H](C)NC(=O)[C@H](CC(C)C)NC(=O)[C@H](C(C)C)NC(=O)[C@@H]2CCCN2C(=O)[C@@H](Cc2ccccc2)NC1=O` (cyclo(A[dF]PVRL[dF]PVL)), the inhibition in assay [1] is 4.03%.
Turning to `CC(C)C[C@@H]1NC(=O)[C@H](CCCNC(=N)N)NC(=O)[C@H](C(C)C)NC(=O)[C@@H]2CCCN2C(=O)[C@@H](Cc2ccccc2)NC(=O)[C@H](CC(C)C)NC(=O)[C@H](CC(=O)O)NC(=O)[C@H](C)NC(=O)[C@@H]2CCCN2C(=O)[C@@H](Cc2ccccc2)NC1=O`, in assay [1], the inhibition is 66.4%. Moreover, in assay [2], the IC50 was 8.1 µM.
For `CC(C)C[C@@H]1NC(=O)[C@H](CCCNC(=N)N)NC(=O)[C@H](C(C)C)NC(=O)[C@@H]2CCCN2C(=O)[C@@H](Cc2ccccc2)NC(=O)[C@H](CC(C)C)NC(=O)[C@H](CC(=O)O)NC(=O)[C@H](CCC(=O)O)NC(=O)[C@@H]2CCCN2C(=O)[C@@H](Cc2ccccc2)NC1=O`, the inhibition in assay [1] turned out to be 1.14%.
Same read-out and setting: for `CC(C)C[C@@H]1NC(=O)[C@H](CC(=O)O)NC(=O)[C@H](CCCNC(=N)N)NC(=O)[C@H](C(C)C)NC(=O)[C@@H]2CCCN2C(=O)[C@@H](Cc2ccccc2)NC(=O)[C@H](CC(C)C)NC(=O)[C@H]([C@@H](C)O)NC(=O)[C@@H]2CCCN2C(=O)[C@@H](Cc2ccccc2)NC1=O` (cyclo(DL[dF]PTL[dF]PVR)) the value was -7.34%; for `CC(C)C[C@@H]1NC(=O)[C@H](CO)NC(=O)[C@H]([C@@H](C)O)NC(=O)[C@@H]2CCCN2C(=O)[C@@H](Cc2ccccc2)NC(=O)[C@H](CC(C)C)NC(=O)[C@H](CCCNC(=N)N)NC(=O)[C@H](C(C)C)NC(=O)[C@@H]2CCCN2C(=O)[C@@H](Cc2ccccc2)NC1=O` (cyclo(L[dF]PTSL[dF]PVR)), 29.7%; for `CCCC[C@@H]1NC(=O)[C@H](CC(=O)O)NC(=O)[C@H]([C@@H](C)O)NC(=O)[C@@H]2CCCN2C(=O)[C@@H](Cc2c[nH]c3ccccc23)NC(=O)[C@H](CC(C)C)NC(=O)[C@H](CCCNC(=N)N)NC(=O)[C@H](C(C)C)NC(=O)[C@H](CCCCNC(C)=C2C(=O)CC(C)(C)CC2=O)NC(=O)[C@@H](Cc2ccccc2)NC1=O`, -2.81%.
`CC[C@H](C)[C@@H]1NC(=O)[C@H](CC(=O)O)NC(=O)[C@H]([C@@H](C)O)NC(=O)[C@@H]2CCCN2C(=O)[C@@H](Cc2c[nH]c3ccccc23)NC(=O)[C@H](CC(C)C)NC(=O)[C@H](CCCNC(=N)N)NC(=O)[C@H]([C@@H](C)CC)NC(=O)[C@@H]2CCCN2C(=O)[C@@H](Cc2ccccc2)NC1=O`: the inhibition in assay [1] was 80.4%. Half-maximal inhibition in assay [2] (IC50) was put at 5.37 µM.
With `CC(C)C[C@@H]1NC(=O)[C@H](CC(=O)O)NC(=O)[C@H](C(C)C)NC(=O)[C@@H]2CCCN2C(=O)[C@@H](Cc2ccccc2)NC(=O)[C@H](CC(C)C)NC(=O)[C@H](CCCNC(=N)N)NC(=O)[C@H](C(C)C)NC(=O)[C@@H]2CCCN2C(=O)[C@@H](CCC(=O)O)NC1=O` (cyclo(DL[dE]PVRL[dF]PV)), the inhibition in assay [1] turned out to be 22.5%.
